# Laboratory results as given in US8354430B2, “Monohydrochloride salt of 1-[3-[3-(4-chlorophenyl) propoxy]propyl]-piperidine” (priority 2005, dated 2013).
# Where “and” joins values, the source holds several entries; their conditions need not be identical. Equal entries are not always repeated. Entries after “also recorded” stand apart in the source; their conditions may differ.
# How the values were obtained:
# mice [1] = assay: Acute toxicity in mouse; type: in vivo; settings: for no-effect dose: mouse, in vivo
# epileptic patients = assay: Photo paroxysmal response (PPR) to intermittent photic stimulation in photosensitive epileptic patients, single-blind single dose; type: in vivo, human; settings: for Delay of apparition / Duration of effect / Suppression of PPR: individual patients
# From the text: Acta Neurol. […] Unlike most other epilepsies, photosensitive epilepsy is a reflex epilepsy and epileptiform discharges can be evoked at any time by IPS in the laboratory. By determination of both upper and lower sensitivity limits (frequencies per flash) a so-called photosensitivity range can be determined. The range is related to liability of seizures in daily life of the patient. This photosensitivity range is relatively stable within a patient and can be diminished or abolished by antiepileptic medication. […] Twelve patients have been enrolled. Four patients received the dose of 20 mg. […] Four patients received the dose of 40 mg.
# Human H4R = Human H4R (Homo sapiens, UniProt Q9H3N8); assay: [3H]histamine binding assay; settings: read-out: Ki or IC50, Human H4R
# Sequence of Human H4R (Q9H3N8 whole entry): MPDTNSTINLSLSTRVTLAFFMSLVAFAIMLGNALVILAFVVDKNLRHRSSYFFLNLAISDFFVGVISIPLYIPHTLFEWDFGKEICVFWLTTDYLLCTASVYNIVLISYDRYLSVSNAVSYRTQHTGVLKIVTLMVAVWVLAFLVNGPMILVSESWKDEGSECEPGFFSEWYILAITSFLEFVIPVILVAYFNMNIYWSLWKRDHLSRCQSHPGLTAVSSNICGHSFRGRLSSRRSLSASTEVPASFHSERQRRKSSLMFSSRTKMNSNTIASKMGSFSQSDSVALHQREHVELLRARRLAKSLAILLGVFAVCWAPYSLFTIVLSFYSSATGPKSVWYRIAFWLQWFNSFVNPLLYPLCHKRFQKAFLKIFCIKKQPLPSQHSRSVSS
# human H3R [2] = target: T1, human H3R (Homo sapiens, UniProt Q9Y5N1); assay: Histamine H3 receptor binding, recombinant human H3R expressed in rat glioma C6 cells; parameters: expressed in transfected cells; host or cells: various mammalian cells (the earlier reading names rat glioma C6)
# T1 sequence (Q9Y5N1 whole entry): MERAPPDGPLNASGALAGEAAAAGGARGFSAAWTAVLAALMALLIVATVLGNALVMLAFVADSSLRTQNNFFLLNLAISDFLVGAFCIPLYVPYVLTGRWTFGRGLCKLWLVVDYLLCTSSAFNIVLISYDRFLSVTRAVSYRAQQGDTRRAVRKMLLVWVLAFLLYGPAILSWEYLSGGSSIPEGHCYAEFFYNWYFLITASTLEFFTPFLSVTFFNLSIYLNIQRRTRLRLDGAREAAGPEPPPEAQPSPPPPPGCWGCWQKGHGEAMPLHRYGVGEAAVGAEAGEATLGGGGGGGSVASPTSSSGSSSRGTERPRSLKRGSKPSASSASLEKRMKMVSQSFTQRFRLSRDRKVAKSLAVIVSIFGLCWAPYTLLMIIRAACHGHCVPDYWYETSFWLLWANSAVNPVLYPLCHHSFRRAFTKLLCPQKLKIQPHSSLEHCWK
# H2R = H2R (Cavia porcellus, UniProt P47747); assay: [125I]iodoaminopotentidine binding assay to the guinea pig H2 receptor; settings: read-out: Ki or IC50, H2R
# Sequence of H2R (P47747 whole entry): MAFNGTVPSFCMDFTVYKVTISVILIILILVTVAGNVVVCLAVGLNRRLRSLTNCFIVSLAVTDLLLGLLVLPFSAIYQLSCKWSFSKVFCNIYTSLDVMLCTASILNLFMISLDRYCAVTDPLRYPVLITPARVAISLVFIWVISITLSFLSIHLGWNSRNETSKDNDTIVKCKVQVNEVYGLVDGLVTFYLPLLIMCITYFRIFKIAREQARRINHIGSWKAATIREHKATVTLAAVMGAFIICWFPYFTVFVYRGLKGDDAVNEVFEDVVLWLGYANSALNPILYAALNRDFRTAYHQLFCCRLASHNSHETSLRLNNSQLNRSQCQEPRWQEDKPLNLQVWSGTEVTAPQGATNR
# [3] = 13-week repeat oral dose study in rats; settings: rat, in vivo, read-out: NOAEL (no observed adverse effect level)
# [4] = Genotoxicity in vitro or in vivo
# rats = assay: Acute toxicity in rat; type: in vivo; settings: for no-effect dose: in vivo
# Human H1R = Human H1R (Homo sapiens, UniProt P35367); assay: Histamine-induced increase in [35S]GTPγS binding; type: biochemical; settings: read-out: Ki or IC50, [35S]GTPγS
# Sequence of Human H1R (P35367 whole entry): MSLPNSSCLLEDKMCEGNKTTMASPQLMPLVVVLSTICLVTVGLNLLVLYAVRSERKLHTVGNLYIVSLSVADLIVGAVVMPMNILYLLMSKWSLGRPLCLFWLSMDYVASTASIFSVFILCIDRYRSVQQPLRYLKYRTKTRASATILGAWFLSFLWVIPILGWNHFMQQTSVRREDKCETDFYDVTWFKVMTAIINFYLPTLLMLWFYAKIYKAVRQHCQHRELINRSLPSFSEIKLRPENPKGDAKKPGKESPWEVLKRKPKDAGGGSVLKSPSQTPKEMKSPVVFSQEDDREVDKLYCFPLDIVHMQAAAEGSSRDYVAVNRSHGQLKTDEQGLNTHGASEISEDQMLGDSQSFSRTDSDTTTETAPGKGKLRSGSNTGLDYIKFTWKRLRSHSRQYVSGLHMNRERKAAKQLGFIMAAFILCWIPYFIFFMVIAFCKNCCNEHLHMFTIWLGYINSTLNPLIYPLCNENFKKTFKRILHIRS
# mice [5] = assay: Kainate-induced temporal lobe seizures in mice; type: in vivo, mouse
# Experimental: Unilateral injection of kainic acid (1 nmol in […]) into the dorsal hippocampus in mice induces a non-convulsive status that results in spontaneous recurrent focal seizures after 2-3 weeks. Seizures (5 to 20 times per hour in quiet mice) are characterized by a behavioral arrest and/or stereotypies, concomitant with spike and poly-spike discharges recorded in the injected hippocampus. All AEDs tested in this model (valproate, carbamazepine, phenytoin, levetiracetam) are without significant effects, except benzodiazepines which transiently suppress seizures. This model reproduces the behavioral, EEG, pharmacological and histological characteristics of mesial temporal lobe epilepsy, a form of epilepsy which is often drug-resistant in humans. After a recovery period, implanted mice (for EEG recording) were injected with kainic acid. They were EEG recorded at least 3 weeks after injection for selection of animals with consistent hippocampal seizure. Then, after a 20 min reference recording period, selected mice received either 1-[3-[3-(4-chlorophenyl)propoxy]propyl]piperidine monohydrochloride (10 or 20 mg/kg, i.p.) or saline and the recording was continued for 60 min. Treatments were given in a counter balanced order (after a one week washout period between two sessions).
# volunteers [6] = assay: Single ascending dose EEG, psychometric and vigilance study in volunteers; type: in vivo, human
# Experimental: A single-center, double-blind, randomized, placebo-controlled, single ascending doses, electroencephalographic study was performed in 36 volunteers. Subjects were consecutively enrolled in groups 1 to 6 (1, 5, 10, 20, 40 or 60 mg). All subjects of each dose group were randomly assigned to receive either 1-[3-[3-(4-chlorophenyl) propoxy]propyl]-piperidine monohydrochloride or placebo, in such a way that 5 subjects received the product and one subject received placebo.
# From the EEG spectral analysis performed before treatment, the study subjects could be stratified as microvolted (66%) and normo or grandvolted (33%). The distribution between those subjects with 30-40% slow activity and 20-25% rapid activity (microvolted), and those with 10% slow activity (normovolted) or 60-80% of [alpha]-activity (grandvolted), explains that before drug administration significant differences were elicited for 20-30 Hz and 30-40 Hz activities.
# mice [7] = assay: Natural forgetting, two-trial object recognition; type: in vivo, mouse
# Experimental: Methods: Mice were submitted to the first trial (T1), placed in the box containing two identical objects and the time required by each animal to complete 8 sec of object exploration was determined. Exploration was considered to be directing the nose at a distance closer than 2 cm to the object and/or touching the object. Immediately after the first trial mice were treated with the vehicle or tacrine (0.25 mg/kg, i.p.). […] Mice were placed in the box for 5 min and exploration of each object together with motor activity was determined. The following parameters were measured: […]
# rat H3R = target: T2, rat H3R (Rattus norvegicus, UniProt Q9QYN8); assay: A23187-evoked [3H]arachidonic acid release from CHO cells expressing rat H3R; type: cell-based; settings: 1 μM, rat H3R 300-400 fmol/mg protein
# T2 construct: expressed in transfected cells; host or cells: CHO cells
# T2 sequence (Q9QYN8 whole entry): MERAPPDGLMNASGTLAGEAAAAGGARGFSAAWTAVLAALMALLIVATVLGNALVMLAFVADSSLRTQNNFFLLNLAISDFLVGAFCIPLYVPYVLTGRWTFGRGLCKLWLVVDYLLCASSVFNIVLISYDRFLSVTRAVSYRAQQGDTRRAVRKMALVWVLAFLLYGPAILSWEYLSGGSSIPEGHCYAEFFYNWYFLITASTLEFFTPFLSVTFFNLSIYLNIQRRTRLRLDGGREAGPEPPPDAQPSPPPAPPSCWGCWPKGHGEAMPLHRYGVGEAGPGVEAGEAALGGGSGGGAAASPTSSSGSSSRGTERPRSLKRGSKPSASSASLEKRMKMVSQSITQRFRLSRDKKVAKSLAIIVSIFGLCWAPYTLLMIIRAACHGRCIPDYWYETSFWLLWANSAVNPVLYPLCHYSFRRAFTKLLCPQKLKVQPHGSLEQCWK
# volunteers [8] = assay: Phase I study of subjective satiety, interaction with olanzapine; type: in vivo, human
# Experimental: A single-center, open-label, placebo-controlled phase I study was performed to evaluate the subjective satiety in 6 volunteers. The volunteers enrolled in the study underwent five single day administration periods.
# human H3R [9] = target: T1, human H3R; assay: A23187-evoked [3H]arachidonic acid release from CHO cells expressing human H3R; type: cell-based; parameters: expressed in transfected cells; host or cells: CHO cells; settings: 1 μM, human H3R 300-400 fmol/mg protein
# [10] = 40 mg single dose, monohydrochloride
# [11] = 60 mg single dose, monohydrochloride
# [12] = two hours after single oral 40 mg and 60 mg
compound,measurement,setting,value
Cl.Clc1ccc(CCCOCCCN2CCCCC2)cc1 [1-[3-[3-(4-chlorophenyl)propoxy]propyl]-piperidine monohydrochloride],maximum non lethal dose,mice [1]; mice,100 mg/kg
same,minimum lethal dose,"mice [1]; mice, i.v.",10 mg/kg
same,minimum lethal dose,"mice [1]; mice, p.o.",150 mg/kg
same,no-effect dose,mice [1]; iv,> 5 mg/kg
same,no-effect dose,mice [1]; po,> 30 mg/kg
same,Delay of apparition,epileptic patients; 20 mg single dose,2 h
same,Duration of effect,epileptic patients; 20 mg single dose,6 h
same,Suppression of PPR,"epileptic patients; 20 mg single dose, monohydrochloride",No (3×) and Total
same,Delay of apparition,epileptic patients; [10],<1 hour hours and 2 hours
same,Duration of effect,epileptic patients; [10],>8 h and 26 h
same,Suppression of PPR,epileptic patients; [10],No (2×) and Total and Partial
same,Delay of apparition,epileptic patients; [11],2 hours and <1 hour hours (3×)
same,Duration of effect,epileptic patients; [11],>8 hours (2×) and >36 hours and 26 hours
same,Suppression of PPR,epileptic patients; [11],Partial; also recorded: Total
same,clinical response,"epileptic patients; 60 mg, four patients",clinical response in all four patients
same,appearance of effect post administration,"epileptic patients; 20-60 mg, overall",1 to 2 h
same,Ki,Human H4R,> 100 µM
same,difference between the affinity at H3R and at other histamine receptors,human H3R [2],three orders of magnitude
same,potency at the human H3R as compared to the mouse H3R,human H3R [2]; same test system,about 6 times
same,Ki,H2R,~5 µM
same,NOAEL at 13 weeks,[3],30 mg/kg/day
same,genotoxicity,[4],not to be genotoxic in vitro or in vivo
same,no-effect dose,rats; iv,12 mg/kg
same,no-effect dose,rats; po,> 50 mg/kg
same,maximum non lethal oral dose,rats; oral,100 mg/kg
same,IC50,Human H1R,> 10 µM
same,cumulated duration and number of hippocampal discharges,"mice [5]; 10 mg/kg, i.p., first 40 min after administration",reduced
same,cumulated duration of hippocampal discharges,"mice [5]; 20 mg/kg i.p., at 60 min",also reduced
same,"flicker, fusion and flicker-fusion thresholds (CFF) vs placebo",volunteers [6]; single 60 mg,higher
same,ARCI 49,volunteers [6]; single doses 1-60 mg,no trend or statistically significant drug effect
same,"self-perception of sleep (LEEDS), alertness, contentedness and calmness (Bond-Lader VAS), choice reaction time (CRT)",volunteers [6]; single doses 1-60 mg,no statistically significant drug effect
same,"EEG rapid activity (20-30 Hz anterior leads, 16 to 40 Hz posterior leads)",volunteers [6]; [12],statistically significant increase of rapid activity
same,median peak position (MPP) on the frequency axis,volunteers [6]; [12],from 10 to 15-17 Hz and from 11 to 13-15 Hz
same,"natural forgetting, association with tacrine",mice [7]; 15 mg/kg i.p. together with tacrine 0.25 mg/kg i.p.,without change in the tacrine effect
same,natural forgetting,"mice [7]; 15 mg/kg, i.p., 30 min before T1",significantly reduced
same,decrease of the A23187-evoked [3H]AA release,rat H3R,40%
same,solubility,"physchem; pH 4.5, aqueous buffer",> 1000 mg/mL
same,solubility,"physchem; pH 7.4, aqueous buffer",> 1000 mg/mL
same,solubility,physchem; water,> 1000 mg/mL
same,subjective satiety versus placebo,volunteers [8]; 60 mg,significantly increased
same,"subjective satiety, association with olanzapine",volunteers [8]; 60 mg + olanzapine 5 mg,able to counteract the effect of olanzapine leading to subjective satiety superimposable to placebo
same,reduction of the A23187-evoked [3H]AA release,human H3R [9],20%
